# Legend:
# [1] = test system: animal models of Alzheimer's disease; conditions: background statement, literature; cited from earlier work
# Effect of freezing (XRD) = assay type: physicochemical; conditions: freezer at about −25° C. for 3 months
# Procedure: The effects of freezing was determined by XRD and the following results were obtained:
# Form A1 was kept in a freezer at about −25° C. for 3 months. Form A1 transformed to Form A in freezer.
# [2] = Effect of micronization, pressing and grinding (XRD); assay type: physicochemical; conditions: pressing 1 minute at 100 metric tons
# Procedure: The effects of micronization, pressing (1 minute at 100 metric tons) and grinding were determined by XRD and the following results were obtained: […]
# [3] = Water content (Karl Fischer) and loss on drying (TGA) of the form as obtained; assay type: physicochemical
# Procedure: (§1) TGA analysis was performed using a Mettler M3 meter. The weight of the samples was about 10 mg. The samples were scanned at a rate of 10° C./min from 25° C. to 200° C. The oven was constantly purged with nitrogen gas at a flow rate of 40 ml/min. Standard 70 μl alumina crucibles covered by lids with 1 hole were used.
# (§2) The water content of ladostigil tartrate was measured by methods known in the art, such Karl Fischer analysis.
# [4] = Hygroscopicity study: exposure to 0-100% relative humidity at room temperature (Karl Fischer, TGA, crystal form by XRD); assay type: physicochemical; set-up: TGA: unit not given here
# Description: Form E was placed for 1 week under 0-100% relative humidity at room temperature. Table 1 summarizes the results:
# Form F was placed for 14 days under 0-100% relative humidity at room temperature. Table 2 summarizes the results:
# Form H was placed for 14 days under 0-100% relative humidity at room temperature. Table 3 summarizes the results:
# Form J1 was placed for 9 days under 0-100% relative humidity at room temperature. Table 4 summarizes the results:
# Table 5 summarizes the results:
# X-Ray powder diffraction data were obtained by method known in the art using a SCINTAG powder X-Ray diffractometer model X'TRA equipped with a solid state detector. Copper radiation of 1.5418 Å was used. A round aluminum sample holder with round zero background quartz plate, with a cavity of 25(diameter)*0.5(depth) mm was used.
# as §1, §2
# Crystal form was determined after equilibration of ladostigil tartrate form A for 10 days at various relative humidities at room temperature.
# Form A1 was exposed at various humidity conditions at room temperature for 13 days.
# Ladostigil tartrate form A1 was exposed to various humidity conditions at room temperature for 14 days. TGA was performed, and the crystal form was analyzed.
# A mixture of ladostigil tartrate form A1 and E, containing primarily form A1, was exposed at various humidity conditions at room temperature for 14 days.
# Form E was placed for 7 days under 0-100% relative humidity at room temperature. Table 12 summarizes the results:
# Form F was placed for 14 days under 0-100% relative humidity at room temperature. Table 14 summarizes the results:
# Ladostigil tartrate Form H was exposed for 14 days under 0-100% relative humidity at room temperature. Table 15 summarizes the results:
# Crystal ladostigil tartrate Form J1 was placed for 9 days under 0-100% relative humidity at room temperature.
# [5] = 100% RH, 13 days, room temperature
# [6] = 100% RH, 14 days, room temperature
Molecule,Efficacy in animal models of Alzheimer's disease [1],Crystal form after freezing (Effect of freezing (XRD)),Crystallinity after pressing [2],Weight loss / loss on drying by TGA [3],Water content ([3]; by weight),"KF (Karl Fischer analysis) ([4]; 0% RH, 13 days, room temperature)","KF (Karl Fischer analysis) ([4]; 20% RH, 13 days, room temperature)","KF (Karl Fischer analysis) ([4]; 40% RH, 13 days, room temperature)","KF (Karl Fischer analysis) ([4]; 60% RH, 13 days, room temperature)","TGA ([4]; 60% RH, 14 days, room temperature)","KF (Karl Fischer analysis) ([4]; 80% RH, 13 days, room temperature)","TGA ([4]; 80% RH, 14 days, room temperature)","KF (Karl Fischer analysis) [4, 5]","Resulting form [4, 5]","Crystal Form (resulting form) [4, 6]","TGA [4, 6]",Hygroscopicity ([4]; conclusion in words),"Crystal form upon exposure to high relative humidity ([4]; high relative humidity, in words)"
"C#CCN[C@@H]1CCc2ccc(OC(=O)N(C)CC)cc21 [Ladostigil, Ethyl-methyl-carbamic acid (R)-3-prop-2-ynylamino-indan-5-yl ester]",effective,,,,,,,,,,,,,,,,,
"carbamic acid, ethylmethyl-, (3R)-2,3-dihydro-3-(2-propynylamino)-1H-inden-5-yl ester, (2R,3R)-2,3-dihydroxybutanedioate (2:1) [Form A1, reference compound]",,Form A,lose some extent of crystallinity,0.3%,about 0.3%,0.3%,0.3%,0.3%,0.3%,0.2,0.3%,0.1,0.5%,partially transforms to form A,mixture of Form A and A1,0.1,neither Form A nor Form A1 is hygroscopic,transforms to form A
